The subject of data set [1] is IL-2 production in Jurkat human T lymphocyte cells. The data set can be described thus: IL-2 production assay for activity of compounds incubated with human serum. As to conditions: for bioactivity in IL-2 inhibition assays (in words): FIGS. 4-5; for IL-2 pg/mL at given concentration (nM): Table 8, Jurkat cells; for IC50: Homo sapiens, Jurkat, 48 h, IL-2 production in Jurkat cells after incubation with pooled human serum for 48 hours at 37° C.; for Conversion (%): percent of the IC50 value produced by triptolide (PG490) in the same experiment, human serum 48 hours. The protocol: Several compounds of formula I were analyzed for their capacity to inhibit IL-2 production in Jurkat human T lymphocyte cells, after incubation with pooled human serum for 48 hours at 37° C. (see Example 20). An ester prodrug, triptolide-14-succinate, designated PG490-88, was included for comparison.
The IC50 values (column 1) are calculated directly from the data in each experiment. The % conversion values (column 2) are calculated as the percent of the IC50 value produced by triptolide, designated PG490, incubated in the same plasma (i.e. in the same experiment).
A. IL-2 production assay for activity of compounds incubated with human serum. Test samples were diluted to 1 mM in complete tissue culture medium. […] Cells from an exponentially expanding culture of the Jurkat human T lymphocyte cell line (#TIB-152 obtained from American Type Culture Collection, Manassas, Va.) were harvested, washed once by centrifugation and dilution in complete tissue culture medium, and diluted to a concentration of 2×10^6 cells/ml. A volume of 50 μl of Jurkat cells (1×10^5 cells) was added to wells containing 100 μl of the diluted compounds, 50 μl of PMA (10 ng/ml) was added to each well, and the plates were incubated at 37° C. in a 5% CO2 incubator. After 24 hours, the plates were centrifuged to pellet the cells, 150 μl of supernatant was removed from each well, and the samples were stored at −20° C. The stored supernatants were analyzed for human IL-2 concentration using the Luminex 100 (Luminex Corporation, Austin, Tex.), Luminex microspheres coupled with anti-IL-2 capture antibody, and fluorochrome-coupled anti-IL-2 detection antibody. The data were expressed as ng/ml of IL-2.
B. Comparison of bioactivities after incubation of compounds in human serum. The data were plotted as the concentration of compound incubated in serum versus IL-2 concentration. The concentration of compound inducing a 50% decrease in the IL-2 concentration (IC50) was calculated from these dose response curves. […] This percentage conversion was used to compare the bioactivity of various compounds after incubation in human serum.

Data set [2] has as its system Jurkat human T lymphocyte cell line. As to the kind of experiment: Apoptosis assay (Annexin V) of compounds incubated with human serum. As to conditions: for apoptotic activity (in words): after 48 hr. incubation in human serum; for EC50: Homo sapiens, Jurkat. The procedure:
Compounds of formula I, as shown in Table 1 above and in the Examples, were assayed for their capacity to induce apoptosis in cells from the Jurkat human T lymphocyte cell line, after incubation with pooled human serum for varying periods of time at 37° C. (see Example 19). An ester prodrug, triptolide-14-succinate, designated PG490-88, was included for comparison. The extent of conversion to triptolide after such incubation was also independently determined by HPLC analysis.
The ED50 values (column 3) are calculated directly from the data in each experiment, and the % conversion values (column 4) are calculated as percent of the ED50 value produced by triptolide, designated PG490, incubated in the same plasma (i.e. in the same experiment).
A. Incubation of compounds with human serum. Pooled human serum was stored in aliquots at −80° C. Test compounds were added at 20 mM to thawed human serum in 1.5 ml microfuge tubes and incubated at 37° C. in a water bath for varying periods of time. The test samples were placed on ice until dilution for the bioassay. Controls consisted of the compounds incubated in complete tissue culture medium (RPMI 1640 medium plus 5% heat-inactivated fetal calf serum, 1% HEPES, 1% pen/strep, 1% glutamine) rather than human serum.
B. Apoptosis assay of compounds incubated with human serum. Test samples were diluted to 1 mM in complete tissue culture medium. Aliquots were placed in microculture plates and serial dilutions were prepared so that the final concentration would encompass the range of 1 to 10,000 nM with half-log increments. Cells from an exponentially expanding culture of the Jurkat human T lymphocyte cell line (#TIB-152 obtained from American Type Culture Collection, Manassas, Va.) were harvested, washed once by centrifugation and dilution in complete tissue culture medium, and diluted to a concentration of 1×10^6 cells/ml. A volume of 100 μl of Jurkat cells (1×10^5 cells) was added to wells containing 100 μl of the diluted compounds, and the plates were incubated at 37° C. in a 5% CO2 incubator. After 24 hours, the plates were centrifuged to pellet the cells, and the cells were washed twice with 2% heat-inactivated fetal calf serum in PBS. To each well, 500 ul of binding buffer was added according to the Annexin V assay procedure (BioVision, Inc., Mountain View, Calif.). Next, 5 μl of the fluorescein isothiocyanate (FITC) conjugate of Annexin V (BioVision, Inc.) was added to each well, followed by 5 minutes of incubation in the dark. In some assays, propidium iodide (BioVision, Inc.) was added at this stage to check for necrotic cells. The contents of the wells were individually transferred into test tubes, and apoptosis was analyzed using a FACSCalibur flow cytometer (BD Immunocytometry Systems, San Jose, Calif.). Cells positive for Annexin V binding were considered to be apoptotic, and the data were calculated as percent apoptotic cells.
C. Comparison of bioactivities after incubation of compounds in human serum. The data were plotted as the concentration of compound incubated in serum versus percent apoptotic cells. The concentration of compound inducing 50% apoptosis (ED50) was calculated from these dose response curves. […] This percentage conversion was used to compare the bioactivity of various compounds after incubation in human serum.

Setting [3] is: Table 4, serum, 48 hr, 10000 nM.
The mark [4] stands for this setting: 48 h, read-out: ED50 (nM) in apoptosis assay after incubation with serum, incubation time in human serum 48 hours, 37° C.
Setting [5] is: incubation time in human serum 48 hours.

We go through 4 molecules from patent publication US20110076293A1, “TRIPTOLIDE DERIVATIVES FOR MODULATION OF APOPTOSIS AND IMMUNOSUPPRESSION” (priority 2002, published 2011).

One may read the IC50 as the point on the concentration scale where inhibition reaches its midpoint.

Read-outs that look alike come from different tables or passages of the source.

With `CC(C)[C@]12O[C@H]1[C@@H]1O[C@]13[C@]1(O[C@H]1C[C@H]1C4=C(CC[C@@]13C)C(=O)OC4)[C@@H]2OC(=O)N1CCN(C)CC1` [PG672, N-methylpiperazinecarbonyl (carbamate)], in data set [1], the “bioactivity in IL-2 inhibition assays (in words)” value was “some level of bioactivity”. In addition, the “IL-2 pg/mL at given concentration (nM)” value in data set [1] (0.0001 nM) is 103.3 pg/mL; in data set [1] (0.001 nM) it was 90.8 pg/mL; in data set [1] (0.01 nM), 99.1 pg/mL; in data set [1] (0.1 nM), 117.1 pg/mL; in data set [1] (1 nM), 91.4 pg/mL; in data set [1] (10 nM) it was 99.1 pg/mL. Besides, the “IL-2 pg/mL at given concentration (nM)” value was found to be 64.6 pg/mL in data set [1] (100 nM), 26.8 pg/mL in data set [1] (1000 nM) and 8.7 pg/mL in data set [1] (10000 nM). Besides, in data set [2], the “conversion in human serum (in words)” value is reported as “less readily converted”. Also, the “% apoptotic cells at given concentration (nM)” value (from here on “% apoptotic cells”) is 48.6% in data set [2] (Table 4, medium, 10000 nM); 47.6% in data set [2] (Table 4, serum, 0 hr, 10000 nM); 42.7% in data set [2] (Table 4, serum, 48 hr, 0.03 nM); 45.2% in data set [2] (Table 4, serum, 48 hr, 0.1 nM); 45.4% in data set [2] (Table 4, serum, 48 hr, 0.3 nM); 45.9% in data set [2] (Table 4, serum, 48 hr, 1 nM). Further, the “% apoptotic cells” value in data set [2] (Table 4, serum, 48 hr, 3 nM) is given as 45.3%; in data set [2] (Table 4, serum, 48 hr, 10 nM), 46.0%; in data set [2] (Table 4, serum, 48 hr, 30 nM) it was 46.8%; in data set [2] (Table 4, serum, 48 hr, 100 nM), 46.6%; in data set [2] (Table 4, serum, 48 hr, 300 nM), 42.3%; in data set [2] (Table 4, serum, 48 hr, 1000 nM) it was 43.7%. In addition, the “% apoptotic cells” value in data set [2] (Table 4, serum, 48 hr, 3000 nM) is recorded as 44.9%; in data set [2] (setting [3]) it was 63.2%. For the same molecule, the “apoptotic activity (in words)” value in data set [2] is listed as “activity at high concentrations”.

For the molecule `CC(C)[C@]12O[C@H]1[C@@H]1O[C@]13[C@]1(O[C@H]1C[C@H]1C4=C(CC[C@@]13C)C(=O)OC4)[C@@H]2OC(=O)CCC(N)C(=O)O` (stereo partly drawn) [PG661, 14-isoglutamyl ester, reference compound], the “bioactivity in IL-2 inhibition assays (in words)” value in data set [1] was “little or no activity”. Moreover, the “IL-2 pg/mL at given concentration (nM)” value in data set [1] (0.0001 nM) worked out at 82.0 pg/mL; in data set [1] (0.001 nM) it was 102.1 pg/mL; in data set [1] (0.01 nM) it was 123.6 pg/mL; in data set [1] (0.1 nM), 120.7 pg/mL; in data set [1] (1 nM) it was 98.2 pg/mL; in data set [1] (10 nM) it was 110.3 pg/mL. The “IL-2 pg/mL at given concentration (nM)” value was 103.6 pg/mL in data set [1] (100 nM), 74.4 pg/mL in data set [1] (1000 nM) and 68.7 pg/mL in data set [1] (10000 nM). The “% apoptotic cells” value is listed as 7.9% in data set [2] (Table 3, human serum, 0 hr, 10000 nM); 11.3% in data set [2] (Table 3, human serum, 48 hr, 1 nM); 10.4% in data set [2] (Table 3, human serum, 48 hr, 3 nM); 10.3% in data set [2] (Table 3, human serum, 48 hr, 10 nM); 10.5% in data set [2] (Table 3, human serum, 48 hr, 30 nM); 10.3% in data set [2] (Table 3, human serum, 48 hr, 100 nM). Further, the “% apoptotic cells” value in data set [2] (Table 3, human serum, 48 hr, 300 nM) is 10.5%; in data set [2] (Table 3, human serum, 48 hr, 1000 nM) it was 10.2%; in data set [2] (Table 3, human serum, 48 hr, 3000 nM), 9.7%; in data set [2] (Table 3, human serum, 48 hr, 10000 nM) it was 9.4%; in data set [2] (Table 3, medium only, 10000 nM), 13.6%; in data set [2] (Table 4, medium, 10000 nM) it was 7.3%. Further, the “% apoptotic cells” value in data set [2] (Table 4, serum, 0 hr, 10000 nM) was determined as 5.2%; in data set [2] (Table 4, serum, 48 hr, 0.03 nM), 38.8%; in data set [2] (Table 4, serum, 48 hr, 0.1 nM), 38.2%; in data set [2] (Table 4, serum, 48 hr, 0.3 nM) it was 39.0%; in data set [2] (Table 4, serum, 48 hr, 1 nM) it was 39.2%; in data set [2] (Table 4, serum, 48 hr, 3 nM) it was 39.1%. Moreover, the “% apoptotic cells” value in data set [2] (Table 4, serum, 48 hr, 10 nM) is 39.2%; in data set [2] (Table 4, serum, 48 hr, 30 nM), 40.3%; in data set [2] (Table 4, serum, 48 hr, 100 nM), 38.6%; in data set [2] (Table 4, serum, 48 hr, 300 nM) it was 36.3%; in data set [2] (Table 4, serum, 48 hr, 1000 nM), 28.7%; in data set [2] (Table 4, serum, 48 hr, 3000 nM), 28.2%. Besides, in data set [2] (setting [3]), the “% apoptotic cells” value is recorded as 5.2%. The “apoptotic activity (in words)” value in data set [2] was “essentially no activity”.

As to `CC(C)[C@]12O[C@H]1[C@@H]1O[C@]13[C@]1(O[C@H]1C[C@H]1C4=C(CC[C@@]13C)C(=O)OC4)[C@@H]2OC(=O)O[C@H](C)C(=O)OC(C)(C)C` [PG681, Triptolide 14-(R)-α-Methyl-tert-butoxycarbonylmethyl Carbonate], the IC50 in data set [1] is 3 nM. In addition, the “Conversion (%)” value in data set [1] is 55%. The EC50 stood at 684 nM in data set [2] (1 h, read-out: ED50 (nM) in apoptosis assay after incubation with serum, incubation time in human serum 1 hour, 37° C.) and 139 nM in data set [2] (setting [4]). Moreover, the “Conversion, as relative ED50 compared to triptolide (%)” value in data set [2] (incubation time in human serum 1 hour) was found to be 7%; in data set [2] (setting [5]), 40%.

Turning to `CC(C)[C@]12O[C@H]1[C@@H]1O[C@]13[C@]1(O[C@H]1C[C@H]1C4=C(CC[C@@]13C)C(=O)OC4)[C@@H]2OC(=O)OC(C)(C)C` [PG695, Triptolide 14-tert-Butyl Carbonate], in data set [1], the IC50 came out at 100 nM and the “Conversion (%)” value is reported as 2%. In data set [2] (setting [4]), the EC50 stood at 59 nM. Also, the “Conversion, as relative ED50 compared to triptolide (%)” value in data set [2] (setting [5]) is on record as 100%.
